Reference: ChEMBL document CHEMBL5346903, “Discovery of novel and bioavailable histone deacetylases and cyclin-dependent kinases dual inhibitor to impair the stemness of leukemia cells” (Eur J Med Chem, 2023)

Columns and labels:
[1] = molecular target: Cyclin-dependent kinase 9 (Homo sapiens, UniProt P50750); experiment: Inhibition of CDK9 (unknown origin) preincubated for 20 mins followed by [gamma-33P]ATP addition measured after 120 mins in presence of ATP by Hot-SpotSM kinase assay
[2] = Antiproliferative activity against HEK293T cells incubated for 72 hrs by CCK8 assay; type: toxicity, cell-based, HEK-293T; settings: human
Histone deacetylase 4 = Histone deacetylase 4 (Homo sapiens, UniProt P56524); experiment: Inhibition of recombinant human HDAC4 using HDAC substrate incubated for 30 mins by fluorescence based assay
Sequence of Histone deacetylase 4 (P56524 whole entry): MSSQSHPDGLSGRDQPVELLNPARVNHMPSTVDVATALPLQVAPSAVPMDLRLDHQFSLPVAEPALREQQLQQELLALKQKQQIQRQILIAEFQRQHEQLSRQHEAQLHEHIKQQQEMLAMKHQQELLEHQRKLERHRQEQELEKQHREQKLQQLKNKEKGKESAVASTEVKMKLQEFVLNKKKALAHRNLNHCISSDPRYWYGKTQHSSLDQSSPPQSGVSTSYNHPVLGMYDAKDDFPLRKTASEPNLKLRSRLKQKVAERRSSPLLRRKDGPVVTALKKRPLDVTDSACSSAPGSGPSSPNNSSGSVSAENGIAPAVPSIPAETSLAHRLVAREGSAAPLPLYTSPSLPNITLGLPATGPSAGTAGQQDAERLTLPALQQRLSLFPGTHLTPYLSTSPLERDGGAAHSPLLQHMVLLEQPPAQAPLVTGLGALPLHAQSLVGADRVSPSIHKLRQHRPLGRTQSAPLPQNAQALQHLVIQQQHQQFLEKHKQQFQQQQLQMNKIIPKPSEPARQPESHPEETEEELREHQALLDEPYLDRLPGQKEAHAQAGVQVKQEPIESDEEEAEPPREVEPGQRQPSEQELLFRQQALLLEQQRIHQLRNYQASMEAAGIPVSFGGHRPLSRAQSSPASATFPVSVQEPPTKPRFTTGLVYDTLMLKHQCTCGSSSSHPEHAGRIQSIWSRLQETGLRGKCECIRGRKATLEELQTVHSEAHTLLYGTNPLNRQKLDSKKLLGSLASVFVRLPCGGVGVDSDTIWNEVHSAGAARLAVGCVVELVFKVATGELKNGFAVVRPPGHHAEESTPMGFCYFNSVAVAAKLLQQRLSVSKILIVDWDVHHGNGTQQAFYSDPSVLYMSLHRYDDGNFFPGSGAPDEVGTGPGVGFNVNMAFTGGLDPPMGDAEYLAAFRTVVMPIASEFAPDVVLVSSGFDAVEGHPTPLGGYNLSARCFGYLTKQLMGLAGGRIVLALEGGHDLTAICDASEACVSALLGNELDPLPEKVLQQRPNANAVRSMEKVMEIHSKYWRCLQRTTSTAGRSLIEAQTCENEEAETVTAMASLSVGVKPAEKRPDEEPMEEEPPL

Histone deacetylase 9 = Histone deacetylase 9 (Homo sapiens, UniProt Q9UKV0); experiment: Inhibition of recombinant human HDAC9 using HDAC substrate incubated for 30 mins by fluorescence based assay
Sequence of Histone deacetylase 9 (Q9UKV0 whole entry): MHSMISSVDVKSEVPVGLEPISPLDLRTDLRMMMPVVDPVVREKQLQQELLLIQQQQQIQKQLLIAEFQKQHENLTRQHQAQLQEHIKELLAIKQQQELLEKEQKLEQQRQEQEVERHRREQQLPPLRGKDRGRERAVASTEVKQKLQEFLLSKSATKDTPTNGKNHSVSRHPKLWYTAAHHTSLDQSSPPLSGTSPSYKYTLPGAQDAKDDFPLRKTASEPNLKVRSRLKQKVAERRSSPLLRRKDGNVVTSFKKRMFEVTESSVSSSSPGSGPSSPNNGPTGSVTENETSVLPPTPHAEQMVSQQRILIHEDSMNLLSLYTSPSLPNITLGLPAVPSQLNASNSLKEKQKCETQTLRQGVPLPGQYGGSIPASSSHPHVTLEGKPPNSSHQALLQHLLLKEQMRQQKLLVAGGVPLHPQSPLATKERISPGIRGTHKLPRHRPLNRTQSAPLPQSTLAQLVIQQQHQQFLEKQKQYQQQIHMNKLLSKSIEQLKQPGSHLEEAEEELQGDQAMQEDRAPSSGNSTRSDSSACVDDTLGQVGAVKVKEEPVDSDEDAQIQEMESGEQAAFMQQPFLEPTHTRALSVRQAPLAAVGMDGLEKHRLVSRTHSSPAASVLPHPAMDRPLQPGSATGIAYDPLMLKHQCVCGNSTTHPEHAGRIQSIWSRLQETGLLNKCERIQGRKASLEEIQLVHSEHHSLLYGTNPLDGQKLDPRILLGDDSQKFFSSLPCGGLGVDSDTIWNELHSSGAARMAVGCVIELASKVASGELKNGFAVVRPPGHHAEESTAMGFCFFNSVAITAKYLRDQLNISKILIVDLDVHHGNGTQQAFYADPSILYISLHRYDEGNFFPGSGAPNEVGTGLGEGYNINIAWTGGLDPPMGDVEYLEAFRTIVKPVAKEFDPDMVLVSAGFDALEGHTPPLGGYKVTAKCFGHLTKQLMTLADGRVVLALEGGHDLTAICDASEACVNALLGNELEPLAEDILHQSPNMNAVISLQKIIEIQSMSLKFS

[3] = molecular target: CDK4/Cyclin D3 (Homo sapiens) (UniProt P11802+P30281); experiment: Inhibition of CDK4/cyclinD3 (unknown origin) at 100 nM preincubated for 20 mins followed by [gamma-33P]ATP addition measured after 120 mins in presence of ATP by Hot-SpotSM kinase assay relative to control; type: protein-complex assay; settings: time 140.0 min
[4] = molecular target: CDK12/Cyclin K (Homo sapiens) (UniProt O75909+Q9NYV4); experiment: Inhibition of CDK12/cyclinK (unknown origin) at 100 nM preincubated for 20 mins followed by [gamma-33P]ATP addition measured after 120 mins in presence of ATP by Hot-SpotSM kinase assay relative to control; type: protein-complex assay; settings: time 140.0 min
Sequence of CDK12/Cyclin K (Homo sapiens) (O75909 whole entry, looked up): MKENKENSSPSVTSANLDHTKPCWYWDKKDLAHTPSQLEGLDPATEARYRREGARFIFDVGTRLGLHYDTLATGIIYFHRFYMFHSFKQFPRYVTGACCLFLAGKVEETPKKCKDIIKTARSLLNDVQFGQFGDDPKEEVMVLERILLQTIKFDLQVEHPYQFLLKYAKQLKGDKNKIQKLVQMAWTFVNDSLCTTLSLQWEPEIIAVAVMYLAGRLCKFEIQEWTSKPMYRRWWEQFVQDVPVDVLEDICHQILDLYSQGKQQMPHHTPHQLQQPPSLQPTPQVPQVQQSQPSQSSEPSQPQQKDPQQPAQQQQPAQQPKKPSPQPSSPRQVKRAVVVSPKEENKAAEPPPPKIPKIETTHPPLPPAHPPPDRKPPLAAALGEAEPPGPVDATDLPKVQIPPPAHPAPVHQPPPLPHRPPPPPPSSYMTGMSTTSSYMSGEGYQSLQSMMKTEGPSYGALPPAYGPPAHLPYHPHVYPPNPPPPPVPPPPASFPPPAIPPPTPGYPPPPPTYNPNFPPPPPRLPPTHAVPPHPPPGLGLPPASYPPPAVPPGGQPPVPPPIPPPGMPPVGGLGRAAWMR
Sequence of CDK12/Cyclin K (Homo sapiens) (Q9NYV4 whole entry, looked up): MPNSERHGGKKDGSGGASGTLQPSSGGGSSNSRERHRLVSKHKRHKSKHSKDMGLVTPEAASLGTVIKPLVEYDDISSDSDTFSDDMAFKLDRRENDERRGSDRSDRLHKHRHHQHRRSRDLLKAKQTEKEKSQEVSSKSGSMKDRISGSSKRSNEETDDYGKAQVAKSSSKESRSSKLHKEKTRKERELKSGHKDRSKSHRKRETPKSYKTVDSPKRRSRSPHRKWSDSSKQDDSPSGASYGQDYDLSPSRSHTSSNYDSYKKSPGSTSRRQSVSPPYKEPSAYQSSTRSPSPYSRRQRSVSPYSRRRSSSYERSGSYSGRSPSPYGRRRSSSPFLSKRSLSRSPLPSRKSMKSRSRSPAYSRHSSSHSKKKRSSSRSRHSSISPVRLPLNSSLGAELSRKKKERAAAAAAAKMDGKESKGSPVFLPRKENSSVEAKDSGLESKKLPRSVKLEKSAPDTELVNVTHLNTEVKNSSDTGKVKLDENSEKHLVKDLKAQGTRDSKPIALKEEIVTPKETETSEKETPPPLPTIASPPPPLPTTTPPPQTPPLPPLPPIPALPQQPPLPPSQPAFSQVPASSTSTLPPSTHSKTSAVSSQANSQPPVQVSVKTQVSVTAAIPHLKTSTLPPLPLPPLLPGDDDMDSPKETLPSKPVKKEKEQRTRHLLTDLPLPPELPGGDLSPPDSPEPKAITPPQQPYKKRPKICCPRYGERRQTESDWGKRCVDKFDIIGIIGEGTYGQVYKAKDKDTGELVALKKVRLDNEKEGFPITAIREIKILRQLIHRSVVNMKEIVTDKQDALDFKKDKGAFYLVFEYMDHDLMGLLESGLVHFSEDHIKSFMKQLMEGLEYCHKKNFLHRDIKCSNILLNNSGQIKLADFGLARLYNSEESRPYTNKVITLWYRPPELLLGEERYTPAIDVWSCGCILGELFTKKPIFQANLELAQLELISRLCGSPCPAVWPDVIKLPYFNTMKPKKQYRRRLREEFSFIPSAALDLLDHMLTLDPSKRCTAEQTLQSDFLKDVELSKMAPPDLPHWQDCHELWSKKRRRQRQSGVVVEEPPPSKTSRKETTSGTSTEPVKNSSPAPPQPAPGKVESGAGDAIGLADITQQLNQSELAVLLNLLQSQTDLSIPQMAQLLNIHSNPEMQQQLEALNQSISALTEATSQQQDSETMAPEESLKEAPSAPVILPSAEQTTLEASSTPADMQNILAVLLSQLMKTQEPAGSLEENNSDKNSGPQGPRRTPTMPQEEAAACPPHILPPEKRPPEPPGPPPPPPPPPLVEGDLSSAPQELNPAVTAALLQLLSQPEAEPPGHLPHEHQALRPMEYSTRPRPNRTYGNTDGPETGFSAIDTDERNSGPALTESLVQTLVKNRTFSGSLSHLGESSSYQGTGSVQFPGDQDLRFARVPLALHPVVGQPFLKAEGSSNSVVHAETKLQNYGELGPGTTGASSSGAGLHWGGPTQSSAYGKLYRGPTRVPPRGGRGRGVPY

[5] = molecular target: Cyclin-C/Cyclin-dependent kinase 19 (Homo sapiens) (UniProt Q9BWU1+P24863); experiment: Inhibition of CDK19/cyclinC (unknown origin) at 100 nM preincubated for 20 mins followed by [gamma-33P]ATP addition measured after 120 mins in presence of ATP by Hot-SpotSM kinase assay relative to control; type: protein-complex assay; settings: time 140.0 min
HL-60 [6] = experiment: Downregulation of Pol-II S5 level in human HL-60 cells incubated for 6 hrs by Western blot analysis; type: functional, cell-based; settings: dose <= 1000.0 nM
HL-60 [7] = experiment: Induction of apoptosis in human HL-60 cells assessed as viable cells at 1 uM incubated for 48 hrs by annexin V-FITC/PI satining based flow cytometry (reference value: 97.4 %); type: functional; settings: read-out: Activity
HL-60 [8] = experiment: Induction of apoptosis in human HL-60 cells assessed as viable cells at 2 uM incubated for 48 hrs by annexin V-FITC/PI satining based flow cytometry (reference value: 97.4 %); type: functional; settings: read-out: Activity
HL-60 [9] = experiment: Induction of apoptosis in human HL-60 cells assessed as early apoptotic cells at 2 uM incubated for 48 hrs by annexin V-FITC/PI satining based flow cytometry (reference value: 1.24 %); type: functional
HL-60 [10] = experiment: Induction of apoptosis in human HL-60 cells assessed as late apoptotic cells at 0.2 uM incubated for 48 hrs by annexin V-FITC/PI satining based flow cytometry (reference value: 1.33 %); type: functional
U-937 [11] = experiment: Induction of apoptosis in human U-937 cells assessed as early apoptotic cells at 0.2 uM incubated for 48 hrs by annexin V-FITC/PI satining based flow cytometry (reference value: 0.945 %); type: functional
U-937 [12] = experiment: Induction of apoptosis in human U-937 cells assessed as necrotic cells at 0.5 uM incubated for 48 hrs by annexin V-FITC/PI satining based flow cytometry (reference value: 1.96 %); type: functional
U-937 [13] = experiment: Induction of apoptosis in human U-937 cells assessed as necrotic cells at 2 uM incubated for 48 hrs by annexin V-FITC/PI satining based flow cytometry (reference value: 1.96 %); type: functional
HL-60 [14] = experiment: Induction of differentiation in human HL-60 cells assessed as increase in CD11b positive cells at 2 uM incubated for 24 hrs by FITC staining based flow cytometry (reference value: 1.45 %); type: functional
U-937 [15] = experiment: Induction of differentiation in human U-937 cells assessed as increase in CD11b positive cells at 0.5 uM incubated for 48 hrs by FITC staining based flow cytometry (reference value: 2.72 %); type: functional
[16] = Cytotoxicity against human Kasumi 1 cells assessed as CD34positive CD38negative leukemic stem cell-like cells sub-population at 0.5 uM incubated for 24 hrs by APC/FITC satining based flow cytometry (reference value: 96.8 %); type: functional
[17] = Cytotoxicity against human Kasumi 1 cells assessed as CD34positive CD38negative leukemic stem cell-like cells sub-population at 1 uM incubated for 24 hrs by APC/FITC satining based flow cytometry (reference value: 96.8 %); type: functional
[18] = AUC in Sprague-Dawley rat at 5 mg/kg, iv measured upto 6 hrs by LC/MS-MS analysis; type: ADME, organism-based; set-up: dose 5 mg/kg, time < 6 hrs, route iv; settings: in vivo
[19] = MRT in Sprague-Dawley rat at 25 mg/kg, po measured upto 8 hrs by LC/MS-MS analysis; type: ADME, organism-based; settings: in vivo
[20] = AUC in Sprague-Dawley rat at 25 mg/kg, po measured upto 8 hrs by LC/MS-MS analysis; type: ADME, organism-based; set-up: time < 8 hrs, dose 25 mg/kg, route po; settings: in vivo
[21] = molecular target: Cyclin-Y/Cyclin-dependent kinase 16 (Homo sapiens) (UniProt Q00536+Q8ND76); settings: dose 100.0 nM, time 140.0 min
HL-60 [22] = experiment: Induction of apoptosis in human HL-60 cells assessed as early apoptotic cells at 5 uM incubated for 48 hrs by annexin V-FITC/PI satining based flow cytometry (reference value: 2.4 %); type: functional
HL-60 [23] = experiment: Induction of apoptosis in human HL-60 cells assessed as necrotic cells at 1.2 uM incubated for 48 hrs by annexin V-FITC/PI satining based flow cytometry (reference value: 0.04 %); type: functional
U-937 [24] = experiment: Induction of apoptosis in human U-937 cells assessed as viable cells at 2.5 uM incubated for 48 hrs by annexin V-FITC/PI satining based flow cytometry (reference value: 93.7 %); type: functional; settings: read-out: Activity
U-937 [25] = experiment: Induction of apoptosis in human U-937 cells assessed as viable cells at 5 uM incubated for 48 hrs by annexin V-FITC/PI satining based flow cytometry (reference value: 93.7 %); type: functional; settings: read-out: Activity
U-937 [26] = experiment: Induction of apoptosis in human U-937 cells assessed as early apoptotic cells at 1.2 uM incubated for 48 hrs by annexin V-FITC/PI satining based flow cytometry (reference value: 1.93 %); type: functional
U-937 [27] = experiment: Induction of apoptosis in human U-937 cells assessed as early apoptotic cells at 2.5 uM incubated for 48 hrs by annexin V-FITC/PI satining based flow cytometry (reference value: 1.93 %); type: functional
U-937 [28] = experiment: Induction of apoptosis in human U-937 cells assessed as late apoptotic cells at 2.5 uM incubated for 48 hrs by annexin V-FITC/PI satining based flow cytometry (reference value: 4.23 %); type: functional
U-937 [29] = experiment: Induction of apoptosis in human U-937 cells assessed as necrotic cells at 2.5 uM incubated for 48 hrs by annexin V-FITC/PI satining based flow cytometry (reference value: 0.102 %); type: functional
HL-60 [30] = experiment: Induction of differentiation in human HL-60 cells assessed as increase in CD11b positive cells at 1.2 uM incubated for 24 hrs by FITC staining based flow cytometry (reference value: 1.12 %); type: functional
HL-60 [31] = experiment: Induction of differentiation in human HL-60 cells assessed as increase in CD11b positive cells at 5 uM incubated for 24 hrs by FITC staining based flow cytometry (reference value: 1.12 %); type: functional

Sequence of Cyclin-dependent kinase 9 (P50750 whole entry): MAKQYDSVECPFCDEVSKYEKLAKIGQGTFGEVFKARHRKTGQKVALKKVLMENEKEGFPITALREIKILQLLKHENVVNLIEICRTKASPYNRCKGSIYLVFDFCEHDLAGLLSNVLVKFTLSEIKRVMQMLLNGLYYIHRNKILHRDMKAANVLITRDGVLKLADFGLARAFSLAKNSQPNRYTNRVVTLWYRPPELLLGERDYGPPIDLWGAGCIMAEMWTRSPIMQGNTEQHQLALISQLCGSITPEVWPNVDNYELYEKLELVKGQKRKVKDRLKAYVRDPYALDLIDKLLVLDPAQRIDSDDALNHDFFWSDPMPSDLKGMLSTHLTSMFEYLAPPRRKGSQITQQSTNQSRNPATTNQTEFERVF

For `Nc1ccccc1NC(=O)c1ccc(NC(=O)c2n[nH]cc2NC(=O)c2c(Cl)cccc2Cl)cc1`, the IC50 [1] was less than 0.1 µM, the IC50 at 72 h [2] was greater than 20 µM and the IC50 (Histone deacetylase 4) was greater than 1 µM. The IC50 (Histone deacetylase 9) was greater than 1 µM, the inhibition [3] was 72.8% and the inhibition [4] was 98.8%. The inhibition [5] was 23.1%, the Activity (HL-60 [6]) was “Dose-Dependent Effect” and the viability at 1 µM (HL-60 [7]) was 43.5%. It also gave a viability at 2 µM (HL-60 [8]) of 5.25%, an Activity (HL-60 [9]) of 35.4% and an Activity (HL-60 [10]) of 1.97%. It also gave an Activity (U-937 [11]) of 1.56%, an Activity (U-937 [12]) of 4.15% and an Activity (U-937 [13]) of 3.3%. The Activity (HL-60 [14]) was 62.2%, the Activity (U-937 [15]) was 3.96% and the Activity [16] was 45.4%. For the same molecule, the Activity [17] was 35.3%, the AUC [18] was 836 ng·h/mL and the MRT [19] was 1.27 h. It also gave an AUC [20] of 2368 ng·h/mL and an inhibition [21] of 35.4%.
With `Nc1cc(F)ccc1NC(=O)c1ccc(CNC(=O)/C=C/c2cccnc2)cc1` [TUCIDINOSTAT] the Activity (HL-60 [22]) was 8.11%, the Activity (HL-60 [23]) was 0.04% and the viability at 2.5 µM (U-937 [24]) was 87.5%. It also gave a viability at 5 µM (U-937 [25]) of 72.6%, an Activity (U-937 [26]) of 2.74% and an Activity (U-937 [27]) of 2.67%. It also gave an Activity (U-937 [28]) of 9.77%, an Activity (U-937 [29]) of 0.084% and an Activity (HL-60 [30]) of 51%. The Activity (HL-60 [31]) was 71.1%.
